Source: BindingDB's records for doi:10.1016/0006-291x(92)90654-4 (Veterans Affairs Medical Center, 1992)

biological target: 5-hydroxytryptamine receptor 1B (Homo sapiens, UniProt P28222)
Sequence (P28222 whole entry): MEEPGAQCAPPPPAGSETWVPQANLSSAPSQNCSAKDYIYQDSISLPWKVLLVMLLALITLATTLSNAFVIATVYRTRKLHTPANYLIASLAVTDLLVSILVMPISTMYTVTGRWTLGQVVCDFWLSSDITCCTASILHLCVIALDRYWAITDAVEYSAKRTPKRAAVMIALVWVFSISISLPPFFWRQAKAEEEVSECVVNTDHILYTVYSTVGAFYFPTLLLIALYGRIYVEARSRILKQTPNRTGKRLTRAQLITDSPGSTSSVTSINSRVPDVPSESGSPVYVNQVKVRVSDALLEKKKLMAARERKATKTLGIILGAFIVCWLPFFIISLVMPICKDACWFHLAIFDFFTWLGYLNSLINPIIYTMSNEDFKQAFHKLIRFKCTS

Row | SMILES | Ki [nM]
1 | CN1CCN(c2nc3cc(C(F)(F)F)ccc3n3cccc23)CC1 [CAS_109028-10-6] | 0.04
2 | CN1CC(C(=O)N[C@]2(C)O[C@@]3(O)C4CCCN4C(=O)[C@H](Cc4ccccc4)N3C2=O)CC2c3cccc4[nH]cc(c34)CC21 (stereo partly drawn) [7-Methyl-4,6,6a,7,8,9,10,10a-octahydro-indolo[4,3-fg]quinoline-9-carboxylic acid ((2R,5S,10bS)-5-benzyl-10b-hydroxy-2-methyl-3,6-dioxo-octahydro-oxazolo[3,2-a]pyrrolo[2,1-c]pyrazin-2-yl)-amide] | 0.006
3 | Cc1cc(C(C)(C)C)c(O)c(C)c1CC1=NCCN1 [SMR000059324] | 0.26
4 | Clc1cccc(N2CCNCC2)c1 [mCPP] | 90
5 | CN1C2CCC1CC(OC(=O)c1c[nH]c3ccccc13)C2 (stereo unspecified) | > 10000
6 | COc1ccc2[nH]cc(C3=CCNCC3)c2c1 [5-Methoxy-3-(1,2,3,6-tetrahydro-pyridin-4-yl)-1H-indole(RU-24969)] | 12.4
7 | CSc1ccc2c(c1)C(N1CCN(C)CC1)Cc1ccccc1S2 (stereo unspecified) [methanesulfonic acid;1-methyl-4-(3-methylsulfanyl-5,6-dihydrobenzo[b][1]benzothiepin-5-yl)piperazine] | 0.2
8 | CN1C[C@@H](NS(=O)(=O)N(C)C)C[C@@H]2c3cccc4c3c(cn4C)C[C@H]21 [MESULERGINE] | 640
9 | O=C(CCCN1CCC2(CC1)C(=O)NCN2c1ccccc1)c1ccc(F)cc1 [8-[4-(4-fluorophenyl)-4-oxidanylidene-butyl]-1-phenyl-1,3,8-triazaspiro[4.5]decan-4-one] | > 10000
10 | FC(F)(F)c1cccc(N2CCNCC2)c1 [TFMPP] | 28
11 | CC(C)(C)NCC(O)COc1cccc2[nH]c(C#N)cc12 (stereo unspecified) [NSC_155346] | 22
